# Source: ChEMBL document CHEMBL4507317, “Data for DCP probe BAY-899” (2021)
# What was measured:
# [1] = molecular target: Leucine-rich repeat serine/threonine-protein kinase 2 (Homo sapiens) (UniProt Q5S007); conditions: Compound concentration 1000.0 nM
# [2] = molecular target: Mitogen-activated protein kinase kinase kinase 7 (Homo sapiens) (UniProt O43318); conditions: Compound concentration 1000.0 nM
# [3] = molecular target: Kappa-type opioid receptor (Homo sapiens, UniProt P41145); experiment: GPCRScan assay: inhibition of KOR; parameters: radioligand conc. used [nm] 0.6 – 1.2, parental cells stable HEK
# Kappa-type opioid receptor, sequence (P41145 whole entry): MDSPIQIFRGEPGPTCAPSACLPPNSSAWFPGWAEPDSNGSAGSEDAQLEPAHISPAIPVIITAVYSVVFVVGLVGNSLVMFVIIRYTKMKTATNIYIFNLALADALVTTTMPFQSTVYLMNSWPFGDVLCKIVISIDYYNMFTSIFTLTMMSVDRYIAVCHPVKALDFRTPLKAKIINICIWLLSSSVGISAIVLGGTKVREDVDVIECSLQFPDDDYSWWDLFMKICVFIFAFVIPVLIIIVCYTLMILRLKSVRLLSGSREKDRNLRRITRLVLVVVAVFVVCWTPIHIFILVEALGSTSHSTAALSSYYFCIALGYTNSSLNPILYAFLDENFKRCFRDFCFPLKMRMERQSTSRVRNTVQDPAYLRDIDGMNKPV
# [4] = molecular target: Serine/threonine-protein kinase 16 (Homo sapiens) (UniProt O75716); conditions: Compound concentration 1000.0 nM
# [5] = molecular target: Serine/threonine-protein kinase pim-2 (Homo sapiens) (UniProt Q9P1W9); conditions: Compound concentration 1000.0 nM
# Serine/threonine-protein kinase pim-2 (Homo sapiens), sequence (Q9P1W9 whole entry, looked up, the tested form may be a part): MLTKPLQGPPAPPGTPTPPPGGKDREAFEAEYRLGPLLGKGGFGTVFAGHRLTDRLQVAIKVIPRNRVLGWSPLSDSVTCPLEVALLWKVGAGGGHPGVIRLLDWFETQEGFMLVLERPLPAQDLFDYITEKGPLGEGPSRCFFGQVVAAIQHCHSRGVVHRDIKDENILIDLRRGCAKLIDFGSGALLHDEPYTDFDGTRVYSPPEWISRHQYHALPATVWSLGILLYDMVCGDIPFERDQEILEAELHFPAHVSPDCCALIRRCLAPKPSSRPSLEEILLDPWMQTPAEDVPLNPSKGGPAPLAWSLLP
# [6] = molecular target: Discoidin domain-containing receptor 2 (Homo sapiens) (UniProt Q16832); conditions: Compound concentration 1000.0 nM
# [7] = molecular target: 5'-AMP-activated protein kinase catalytic subunit alpha-2 (Homo sapiens) (UniProt P54646); conditions: Compound concentration 1000.0 nM
# [8] = molecular target: Wee1-like protein kinase 2 (Homo sapiens) (UniProt P0C1S8); conditions: Compound concentration 1000.0 nM
# Wee1-like protein kinase 2 (Homo sapiens), sequence (P0C1S8 whole entry, looked up): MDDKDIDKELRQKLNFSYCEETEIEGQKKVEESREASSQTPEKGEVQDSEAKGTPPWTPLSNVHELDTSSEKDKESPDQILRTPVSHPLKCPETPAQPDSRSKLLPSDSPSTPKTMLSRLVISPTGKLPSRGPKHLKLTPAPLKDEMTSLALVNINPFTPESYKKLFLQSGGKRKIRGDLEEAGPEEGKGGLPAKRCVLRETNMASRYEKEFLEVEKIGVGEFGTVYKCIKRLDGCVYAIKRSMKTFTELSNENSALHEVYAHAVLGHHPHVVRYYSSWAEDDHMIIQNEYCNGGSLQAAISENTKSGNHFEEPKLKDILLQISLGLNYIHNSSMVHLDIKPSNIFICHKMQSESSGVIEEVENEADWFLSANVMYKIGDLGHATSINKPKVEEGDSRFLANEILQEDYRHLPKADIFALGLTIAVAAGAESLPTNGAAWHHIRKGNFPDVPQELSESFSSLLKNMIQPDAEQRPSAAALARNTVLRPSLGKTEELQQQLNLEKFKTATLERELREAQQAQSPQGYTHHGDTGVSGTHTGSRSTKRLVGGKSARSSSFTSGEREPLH
# [9] = molecular target: Atypical kinase COQ8B, mitochondrial (Homo sapiens) (UniProt Q96D53); conditions: Compound concentration 1000.0 nM
# [10] = molecular target: D(3) dopamine receptor (Homo sapiens) (UniProt P35462); conditions: Compound concentration 10.0 uM
# [11] = molecular target: Casein kinase I isoform epsilon (Homo sapiens) (UniProt P49674); conditions: Compound concentration 1000.0 nM
# [12] = molecular target: Testis-specific serine/threonine-protein kinase 1 (Homo sapiens) (UniProt Q9BXA7); conditions: Compound concentration 1000.0 nM
# [13] = molecular target: Citron Rho-interacting kinase (Homo sapiens) (UniProt O14578); conditions: Compound concentration 1000.0 nM
# [14] = tested on: Phosphatidylinositol 4,5-bisphosphate 3-kinase catalytic subunit alpha isoform (Homo sapiens), P42336 [E545A]; conditions: Compound concentration 1000.0 nM
# [15] = molecular target: Calcium/calmodulin-dependent protein kinase type II subunit alpha (Homo sapiens) (UniProt Q9UQM7); conditions: Compound concentration 1000.0 nM
# [16] = molecular target: T1, Muscarinic acetylcholine receptor M4 (Homo sapiens) (UniProt P08173); conditions: Compound concentration 10.0 uM
# T1 sequence (whole entry): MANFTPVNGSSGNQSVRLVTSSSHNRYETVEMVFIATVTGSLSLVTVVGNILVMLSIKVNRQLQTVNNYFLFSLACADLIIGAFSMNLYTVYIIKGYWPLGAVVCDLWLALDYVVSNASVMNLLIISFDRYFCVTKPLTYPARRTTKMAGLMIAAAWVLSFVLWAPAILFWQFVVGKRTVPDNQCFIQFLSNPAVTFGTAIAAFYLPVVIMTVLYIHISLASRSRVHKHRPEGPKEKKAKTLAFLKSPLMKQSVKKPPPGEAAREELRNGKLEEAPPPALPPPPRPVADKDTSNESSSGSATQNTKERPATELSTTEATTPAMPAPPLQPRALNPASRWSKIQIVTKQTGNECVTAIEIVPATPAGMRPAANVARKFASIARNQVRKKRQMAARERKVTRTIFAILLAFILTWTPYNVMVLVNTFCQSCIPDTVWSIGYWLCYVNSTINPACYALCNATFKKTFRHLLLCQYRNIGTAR
# [17] = molecular target: Dual specificity mitogen-activated protein kinase kinase 5 (Homo sapiens) (UniProt Q13163); conditions: Compound concentration 1000.0 nM
# [18] = molecular target: Serine/threonine-protein kinase 38 (Homo sapiens) (UniProt Q15208); conditions: Compound concentration 1000.0 nM
# Serine/threonine-protein kinase 38 (Homo sapiens), sequence (Q15208 2-465 limits assumed): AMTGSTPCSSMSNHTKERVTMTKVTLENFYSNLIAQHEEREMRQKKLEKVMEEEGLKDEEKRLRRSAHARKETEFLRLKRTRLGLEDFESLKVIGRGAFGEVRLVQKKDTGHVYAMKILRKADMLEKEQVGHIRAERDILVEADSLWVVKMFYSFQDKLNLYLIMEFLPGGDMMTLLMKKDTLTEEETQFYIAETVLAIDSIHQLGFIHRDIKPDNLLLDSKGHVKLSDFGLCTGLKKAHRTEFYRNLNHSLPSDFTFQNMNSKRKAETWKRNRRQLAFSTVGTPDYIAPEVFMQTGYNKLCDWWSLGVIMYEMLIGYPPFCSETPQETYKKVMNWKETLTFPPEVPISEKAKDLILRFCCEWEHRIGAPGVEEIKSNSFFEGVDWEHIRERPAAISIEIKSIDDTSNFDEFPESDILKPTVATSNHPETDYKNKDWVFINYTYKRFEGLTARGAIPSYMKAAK
# [19] = tested on: Receptor-type tyrosine-protein kinase FLT3 (Homo sapiens), P36888 [UNDEFINED MUTATION]; conditions: Compound concentration 1000.0 nM
# [20] = molecular target: Protein kinase C epsilon type (Homo sapiens) (UniProt Q02156); conditions: Compound concentration 1000.0 nM
# [21] = molecular target: Serine/threonine-protein kinase Nek11 (Homo sapiens) (UniProt Q8NG66); conditions: Compound concentration 1000.0 nM
# Serine/threonine-protein kinase Nek11 (Homo sapiens), sequence (Q8NG66 whole entry, canonical isoform): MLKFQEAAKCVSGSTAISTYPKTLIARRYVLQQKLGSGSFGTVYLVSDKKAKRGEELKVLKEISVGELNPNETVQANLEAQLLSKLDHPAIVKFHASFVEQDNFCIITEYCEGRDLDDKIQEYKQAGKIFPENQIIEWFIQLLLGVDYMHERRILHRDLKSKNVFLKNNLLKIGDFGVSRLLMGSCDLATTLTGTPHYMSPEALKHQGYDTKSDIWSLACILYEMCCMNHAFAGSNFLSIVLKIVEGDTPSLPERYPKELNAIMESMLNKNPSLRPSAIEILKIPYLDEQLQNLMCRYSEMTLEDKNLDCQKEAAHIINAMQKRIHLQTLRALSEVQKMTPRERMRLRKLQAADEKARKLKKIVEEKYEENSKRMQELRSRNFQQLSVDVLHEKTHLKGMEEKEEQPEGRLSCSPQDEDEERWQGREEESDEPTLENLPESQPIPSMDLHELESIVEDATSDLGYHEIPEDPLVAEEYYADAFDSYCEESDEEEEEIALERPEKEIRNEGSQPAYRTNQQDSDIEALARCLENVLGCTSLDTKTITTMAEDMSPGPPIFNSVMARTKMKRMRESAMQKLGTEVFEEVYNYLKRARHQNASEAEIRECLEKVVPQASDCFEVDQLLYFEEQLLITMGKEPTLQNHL
# [22] = tested on: Phosphatidylinositol 4,5-bisphosphate 3-kinase catalytic subunit alpha isoform (Homo sapiens), P42336 [I800L]; conditions: Compound concentration 1000.0 nM
# [23] = molecular target: Serine/threonine-protein kinase tousled-like 1 (Homo sapiens) (UniProt Q9UKI8); conditions: Compound concentration 1000.0 nM
# [24] = molecular target: Proto-oncogene tyrosine-protein kinase ROS (Homo sapiens) (UniProt P08922); conditions: Compound concentration 1000.0 nM
# [25] = molecular target: Serine/threonine-protein kinase Nek5 (Homo sapiens) (UniProt Q6P3R8); conditions: Compound concentration 1000.0 nM
# Serine/threonine-protein kinase Nek5 (Homo sapiens), sequence (Q6P3R8 whole entry): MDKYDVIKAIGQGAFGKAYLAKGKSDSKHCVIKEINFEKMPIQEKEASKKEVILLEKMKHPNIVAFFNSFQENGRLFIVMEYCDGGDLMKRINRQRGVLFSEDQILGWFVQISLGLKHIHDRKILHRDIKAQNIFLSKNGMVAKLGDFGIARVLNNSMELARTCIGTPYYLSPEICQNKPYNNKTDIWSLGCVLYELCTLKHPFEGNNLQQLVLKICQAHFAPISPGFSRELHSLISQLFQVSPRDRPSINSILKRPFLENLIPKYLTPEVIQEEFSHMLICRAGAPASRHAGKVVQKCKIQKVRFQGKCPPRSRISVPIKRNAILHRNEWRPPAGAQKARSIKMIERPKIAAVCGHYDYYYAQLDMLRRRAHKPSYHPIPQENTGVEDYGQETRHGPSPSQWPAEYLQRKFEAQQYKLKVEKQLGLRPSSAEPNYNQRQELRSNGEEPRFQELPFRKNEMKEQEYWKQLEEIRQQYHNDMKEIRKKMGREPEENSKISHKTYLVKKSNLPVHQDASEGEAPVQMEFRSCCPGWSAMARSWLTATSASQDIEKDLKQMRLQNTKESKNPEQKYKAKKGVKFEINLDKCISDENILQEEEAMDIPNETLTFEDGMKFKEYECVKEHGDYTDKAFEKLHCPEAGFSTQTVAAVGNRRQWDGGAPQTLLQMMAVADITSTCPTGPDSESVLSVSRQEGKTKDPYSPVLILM
# [26] = molecular target: Calcium/calmodulin-dependent protein kinase kinase 1 (Homo sapiens) (UniProt Q8N5S9); conditions: Compound concentration 1000.0 nM
# [27] = molecular target: Sodium-dependent noradrenaline transporter (Homo sapiens) (UniProt P23975); conditions: Compound concentration 10.0 uM
# Sodium-dependent noradrenaline transporter (Homo sapiens), sequence (P23975 whole entry): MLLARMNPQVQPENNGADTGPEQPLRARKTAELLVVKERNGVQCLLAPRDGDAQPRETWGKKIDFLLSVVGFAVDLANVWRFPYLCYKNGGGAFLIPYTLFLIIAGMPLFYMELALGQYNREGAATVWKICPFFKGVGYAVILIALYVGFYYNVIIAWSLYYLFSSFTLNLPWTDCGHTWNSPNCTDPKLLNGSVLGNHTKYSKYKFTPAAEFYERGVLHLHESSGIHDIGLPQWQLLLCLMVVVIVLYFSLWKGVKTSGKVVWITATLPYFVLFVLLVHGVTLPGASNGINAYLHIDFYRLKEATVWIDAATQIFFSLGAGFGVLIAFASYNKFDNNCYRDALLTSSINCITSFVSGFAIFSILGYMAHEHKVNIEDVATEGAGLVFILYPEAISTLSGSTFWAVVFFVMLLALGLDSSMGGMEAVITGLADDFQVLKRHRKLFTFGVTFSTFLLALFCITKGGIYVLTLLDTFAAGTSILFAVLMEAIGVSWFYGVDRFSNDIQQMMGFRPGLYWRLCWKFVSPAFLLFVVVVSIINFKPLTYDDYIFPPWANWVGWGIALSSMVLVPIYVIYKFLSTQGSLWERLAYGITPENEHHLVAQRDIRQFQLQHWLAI
# [28] = molecular target: Calcium/calmodulin-dependent protein kinase type 1B (Homo sapiens) (UniProt Q6P2M8); conditions: Compound concentration 1000.0 nM
# [29] = molecular target: Mitogen-activated protein kinase 12 (Homo sapiens) (UniProt P53778); conditions: Compound concentration 1000.0 nM
# [30] = molecular target: Mitogen-activated protein kinase 3 (Homo sapiens) (UniProt P27361); conditions: Compound concentration 1000.0 nM
# [31] = molecular target: Ephrin type-B receptor 4 (Homo sapiens) (UniProt P54760); conditions: Compound concentration 1000.0 nM
# [32] = tested on: Phosphatidylinositol 4,5-bisphosphate 3-kinase catalytic subunit alpha isoform (Homo sapiens), P42336 [E545K]; conditions: Compound concentration 1000.0 nM
# [33] = molecular target: Glycogen synthase kinase-3 beta (Homo sapiens) (UniProt P49841); conditions: Compound concentration 1000.0 nM
# [34] = molecular target: Fibroblast growth factor receptor 1 (Homo sapiens) (UniProt P11362); conditions: Compound concentration 1000.0 nM
# Fibroblast growth factor receptor 1 (Homo sapiens), sequence (P11362 22-822 limits assumed): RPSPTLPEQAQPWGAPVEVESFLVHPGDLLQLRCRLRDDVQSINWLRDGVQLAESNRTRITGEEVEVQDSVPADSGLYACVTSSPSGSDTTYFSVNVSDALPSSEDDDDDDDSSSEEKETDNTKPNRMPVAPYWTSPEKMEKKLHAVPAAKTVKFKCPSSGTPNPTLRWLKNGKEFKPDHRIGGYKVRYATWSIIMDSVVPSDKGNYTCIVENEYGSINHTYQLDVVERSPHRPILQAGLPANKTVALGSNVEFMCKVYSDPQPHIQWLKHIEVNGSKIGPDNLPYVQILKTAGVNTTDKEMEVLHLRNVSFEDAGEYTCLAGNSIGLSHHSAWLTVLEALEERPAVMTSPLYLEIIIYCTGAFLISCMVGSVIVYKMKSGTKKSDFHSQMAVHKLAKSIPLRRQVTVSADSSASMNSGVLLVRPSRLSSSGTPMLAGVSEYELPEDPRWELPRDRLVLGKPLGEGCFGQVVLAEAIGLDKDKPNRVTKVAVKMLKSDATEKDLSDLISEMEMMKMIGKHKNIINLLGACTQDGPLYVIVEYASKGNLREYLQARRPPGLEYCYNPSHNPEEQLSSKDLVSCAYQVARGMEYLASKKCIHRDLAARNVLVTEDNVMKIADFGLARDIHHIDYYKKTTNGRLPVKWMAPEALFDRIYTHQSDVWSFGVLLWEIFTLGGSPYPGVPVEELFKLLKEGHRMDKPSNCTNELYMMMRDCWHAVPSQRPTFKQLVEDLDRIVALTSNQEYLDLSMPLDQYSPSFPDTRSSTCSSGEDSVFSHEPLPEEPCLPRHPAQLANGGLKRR
# [35] = molecular target: Tyrosine-protein kinase JAK3 (Homo sapiens) (UniProt P52333); conditions: Compound concentration 1000.0 nM
# [36] = molecular target: Serine/threonine-protein kinase ULK3 (Homo sapiens) (UniProt Q6PHR2); conditions: Compound concentration 1000.0 nM
# Serine/threonine-protein kinase ULK3 (Homo sapiens), sequence (Q6PHR2 whole entry): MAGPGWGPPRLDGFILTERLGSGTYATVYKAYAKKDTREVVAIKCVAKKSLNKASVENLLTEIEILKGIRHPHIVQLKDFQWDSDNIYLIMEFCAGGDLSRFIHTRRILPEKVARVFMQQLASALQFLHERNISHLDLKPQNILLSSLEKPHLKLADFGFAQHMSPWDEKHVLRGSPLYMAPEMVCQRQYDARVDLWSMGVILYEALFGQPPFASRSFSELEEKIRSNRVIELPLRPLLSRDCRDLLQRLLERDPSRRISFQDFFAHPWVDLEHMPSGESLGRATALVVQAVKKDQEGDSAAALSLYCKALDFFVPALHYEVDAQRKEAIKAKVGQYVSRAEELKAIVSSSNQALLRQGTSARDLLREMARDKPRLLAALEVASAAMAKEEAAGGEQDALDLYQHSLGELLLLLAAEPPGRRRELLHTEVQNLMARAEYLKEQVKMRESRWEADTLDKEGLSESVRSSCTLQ
# [37] = molecular target: MAP kinase-interacting serine/threonine-protein kinase 2 (Homo sapiens) (UniProt Q9HBH9); conditions: Compound concentration 1000.0 nM
# [38] = molecular target: Ephrin type-A receptor 3 (Homo sapiens) (UniProt P29320); conditions: Compound concentration 1000.0 nM
Compound,residual activity [1] [%],residual activity [2] [%],Ki [3] [µM],residual activity [4] [%],residual activity [5] [%],residual activity [6] [%],residual activity [7] [%],residual activity [8] [%],residual activity [9] [%],inhibition [10] [%],residual activity [11] [%],residual activity [12] [%],residual activity [13] [%],residual activity [14] [%],residual activity [15] [%],inhibition [16] [%],residual activity [17] [%],residual activity [18] [%],residual activity [19] [%],residual activity [20] [%],also measured
O=C(Nc1ccc(Oc2ccc(F)cc2)cc1)N1CCc2ncccc2[C@H]1c1ccc(F)cc1 [BAY-897],76,89,3.13,100,93,100,51,100,92,-2.66,85,87,91,100,88,9.29,81,99,93,100,residual activity [21]: 100%; residual activity [22]: 66%; residual activity [23]: 100%; residual activity [24]: 76%; residual activity [25]: 96%; residual activity [26]: 99%; inhibition [27]: 32.5%; residual activity [28]: 96%; residual activity [29]: 94%; residual activity [30]: 87%; residual activity [31]: 100%; residual activity [32]: 73%; residual activity [33]: 100%; residual activity [34]: 100%; residual activity [35]: 100%; residual activity [36]: 99%; residual activity [37]: 91%; residual activity [38]: 91%
O=C(Nc1cnc(Oc2ccc(F)cc2)nc1)N1CCc2ncccc2[C@@H]1c1ccc(F)cc1 [BAY-899],83,90,7.63,100,94,100,79,95,100,-4.36,66,100,88,98,92,22.8,83,91,100,100,residual activity [21]: 100%; residual activity [22]: 69%; residual activity [23]: 90%; residual activity [24]: 82%; residual activity [25]: 90%; residual activity [26]: 92%; inhibition [27]: 10.2%; residual activity [28]: 100%; residual activity [29]: 96%; residual activity [30]: 92%; residual activity [31]: 100%; residual activity [32]: 63%; residual activity [33]: 100%; residual activity [34]: 82%; residual activity [35]: 91%; residual activity [36]: 95%; residual activity [37]: 94%; residual activity [38]: 82%
